Measured values published in ChEMBL document CHEMBL3244112, “Dipeptides of O-methyl-L-threonine as potential antimalarials” (J Med Chem, 1979).
Activity calls are given as the source filed them. The calls are words filed in the database; no cut-off is given here. Peptide text beside a SMILES is read from it.

What was measured:
Plasmodium berghei [1] = assay: Antimalarial activity against Plasmodium berghei infected in mouse assessed as increase of survival time of host at 640 mg/kg; type: functional, organism-based; design: dose 640 mg/kg
Mus musculus = assay: Toxicity in Plasmodium berghei infected mouse at <640 mg/kg; type: organism-based; settings: in vivo
Plasmodium berghei [2] = assay: Antimalarial activity against Plasmodium berghei infected in mouse assessed as increase of survival time of host at 160 to 640 mg/kg; type: functional, organism-based
Plasmodium berghei [3] = assay: Antimalarial activity against Plasmodium berghei infected in mouse assessed as increase of survival time of host; type: functional, organism-based

CC(C)C[C@H](N)C(=O)O [LEUCINE]
Activity (Plasmodium berghei [1]): inactive | Activity (Mus musculus): Non-toxic

CO[C@H](C)[C@H](N)C(=O)O
Activity (Plasmodium berghei [2]): Active

CO[C@H](C)[C@H](N)C(=O)N[C@@H](CC(C)C)C(=O)O (H-Thr(Me)-Leu-OH)
Activity (Plasmodium berghei [1]): inactive | Activity (Mus musculus): Non-toxic

CO[C@H](C)[C@H](N)C(=O)N[C@H](C(=O)O)[C@@H](C)OC (H-Thr(Me)-Thr(Me)-OH)
Activity (Plasmodium berghei [3]): Active | Activity (Plasmodium berghei [1]): Active

CO[C@H](C)[C@H](NC(=O)[C@@H](N)CC(C)C)C(=O)O (H-Leu-Thr(Me)-OH)
Activity (Plasmodium berghei [1]): inactive | Activity (Mus musculus): Non-toxic
